In patent US4324728A, “Compound nanaomycin A and derivatives thereof and a process for producing the same” (The Kitasato Institute, priority 1976, dated 1982):
In brackets after ≈: the same amount, converted by molar mass. Where two headings read alike, the source gives them in different places.

Tests used:
[1] = tested on: Staphylococcus aureus FDA 209P; experiment: Minimal inhibitory concentration (agar); format: cell-based; settings: FDA209P, 48 h, nutrient agar, pH 7.0, 2 days, 37° C.
[2] = tested on: Bacillus subtilis PCI 219; experiment: Minimal inhibitory concentration (agar); format: cell-based; settings: Bacillus subtilis, PCI219, 48 h, pH 7, nutrient agar, pH 7.0, 2 days, 37° C.; read-out: MIC
Description: (§1) Medium N nutrient agar (pH 7.0, 2 days, 37° C.)
(§2) MIC Minimal inhibitory concentration
(§3) N nutrient agar (pH 7.0, 2 days, 37° C.)

[3] = tested on: Escherichia coli NIHJ (JC-2); experiment: Minimal inhibitory concentration (agar); format: cell-based; settings: 48 h, pH 7, nutrient agar, pH 7.0, 2 days, 37° C.
Description: as §1, §2, §3

[4] = tested on: Pseudomonas aeruginosa; experiment: Minimal inhibitory concentration (agar); format: cell-based; settings: 48 h, nutrient agar, pH 7.0, 2 days, 37° C.
Description: as §1, §2, §3

[5] = tested on: Sarcina lutea PCI 1001; experiment: Minimal inhibitory concentration (agar); format: cell-based; settings: Micrococcus luteus, PCI1001, 48 h, pH 7, nutrient agar, pH 7.0, 2 days, 37° C.; read-out: MIC
Description: as §1, §2, §3

[6] = tested on: Shigella flexneri; experiment: Minimal inhibitory concentration (agar); format: cell-based; settings: 48 h, nutrient agar, pH 7.0, 2 days, 37° C.
Description: as §1, §2, §3

[7] = tested on: Staphylococcus aureus FDA 209P (JC-1); experiment: Minimal inhibitory concentration (agar); format: cell-based; settings: FDA209P, 48 h, nutrient agar, pH 7.0, 2 days, 37° C.
Description: as §1, §2, §3

[8] = tested on: Escherichia coli NIHJ; experiment: Minimal inhibitory concentration (agar); format: cell-based; settings: 48 h, nutrient agar, pH 7.0, 2 days, 37° C.
[9] = tested on: Klebsiella pneumoniae PCI 602; experiment: Minimal inhibitory concentration (agar); format: cell-based; settings: PCI602, 48 h, nutrient agar, pH 7.0, 2 days, 37° C.
[10] = tested on: Salmonella typhimurium; experiment: Minimal inhibitory concentration (agar); format: cell-based; settings: Salmonella enterica, 48 h, nutrient agar, pH 7.0, 2 days, 37° C.
[11] = tested on: Candida albicans; experiment: Minimal inhibitory concentration (agar); format: cell-based; settings: pH 6.4, 4 days, 27° C.
Description: (§4) P potato agar (pH 6.4, 4 days, 27° C.)
as §2
(§5) Minimal inhibitory concentration was assayed by agar dilution method
(§6) (potato agar, pH 6.4, 27° C., 4 days).

[12] = tested on: Saccharomyces sake; experiment: Minimal inhibitory concentration (agar); format: cell-based; settings: potato agar, pH 6.4, 4 days, 27° C.
[13] = tested on: Trichophyton interdigitale; experiment: Minimal inhibitory concentration (agar); format: cell-based; settings: potato agar, pH 6.4, 4 days, 27° C.
[14] = tested on: Mycoplasma gallisepticum 333P (Spiramycin resistant); experiment: Minimal inhibitory concentration (PPLO agar); format: cell-based; settings: Mycoplasmoides gallisepticum, 192 h, pH 7.8
Description: (§7) H Hokken PPLO agar (pH 7.8, 8 days, 37° C.)
(§8) E Eiken PPLO agar (pH 7.8, 8 days, 37° C.)
as §2

[15] = tested on: Mycoplasma gallisepticum KP-13; experiment: Minimal inhibitory concentration (PPLO agar); format: cell-based; settings: Mycoplasmoides gallisepticum, KP13, 192 h; Eiken PPLO agar, pH 7.8, 8 days, 37° C.; read-out: MIC
Description: as §7, §8, §2

[16] = tested on: Mycoplasma gallisepticum S-6; experiment: Minimal inhibitory concentration (PPLO agar); format: cell-based; settings: Mycoplasmoides gallisepticum, S6, 192 h; Eiken PPLO agar, pH 7.8, 8 days, 37° C.; read-out: MIC
Description: as §7, §8, §2

[17] = tested on: Mycoplasma gallinarum; experiment: Minimal inhibitory concentration (PPLO agar); format: cell-based; settings: Mycoplasmopsis gallinarum, 192 h, Eiken PPLO agar, pH 7.8, 8 days, 37° C.
Description: as §7, §2, §8

[18] = tested on: Mycoplasma iners; experiment: Minimal inhibitory concentration (PPLO agar); format: cell-based; settings: Mycoplasmopsis iners, 192 h; Eiken PPLO agar, pH 7.8, 8 days, 37° C.
Description: as §7, §2, §8

[19] = tested on: Mycoplasma pneumoniae; experiment: Minimal inhibitory concentration (PPLO agar); format: cell-based; settings: 192 h, Eiken PPLO agar, pH 7.8, 8 days, 37° C.
[20] = tested on: Mycobacterium smegmatis ATCC 607; experiment: Minimal inhibitory concentration (agar); format: cell-based; settings: Mycolicibacterium smegmatis, ATCC607, 48 h; nutrient agar, pH 7.0, 2 days, 37° C.
[21] = tested on: Aspergillus niger; experiment: Minimal inhibitory concentration (agar); format: cell-based; settings: potato agar, pH 6.4, 4 days, 27° C.
Description: as §5, §6, §4

[22] = tested on: Sclerotinia cinerea; experiment: Minimal inhibitory concentration (agar); format: cell-based; settings: 96 h, potato agar, pH 6.4, 4 days, 27° C.
Description: | P potato agar (pH 6.4, 4 days, 27° C.)

[23] = tested on: Gram-positive bacteria; experiment: Antibacterial activity (in words); format: cell-based
[24] = tested on: mycoplasmas; experiment: Antimycoplasma activity (in words); format: cell-based
[25] = tested on: fungi; experiment: Antifungal activity (in words); format: cell-based
[26] = tested on: mycoplasma, Gram-positive bacteria and tricophyton; experiment: Antimicrobial activity (in words); format: cell-based
[27] = tested on: parasite of the genus Tricophyton; experiment: Therapeutic effect on infectious diseases in guinea pigs and cattle; format: in vivo
Description: When dermatomycosis of cattle caused by mass infection of Trichophyton verrucosum is treated with nanaomycin A, nanaomycin A is dissolved or suspended in a suitable carrier, for example, olive oil, and is coated on the affected part directly with or without removal of the scales. […] The results obtained by once-coating of nanaomycin A and by twice-coating (the second coating is carried out a week after the first coating) are shown in Tables 2 and 3, respectively.

[28] = Solubility; format: physicochemical
[29] = tested on: Trichophyton rubrum; experiment: Minimal inhibitory concentration (agar); format: cell-based; settings: potato agar, pH 6.4, 4 days, 27° C.
Description: as §4, §2, §5, §6

[30] = tested on: Trichophyton schoenleini; experiment: Minimal inhibitory concentration (agar); format: cell-based; settings: potato agar, pH 6.4, 4 days, 27° C.
Description: as §4, §2, §5, §6

[31] = tested on: Trichophyton asteroides; experiment: Minimal inhibitory concentration (agar); format: cell-based; settings: potato agar, pH 6.4, 4 days, 27° C.
[32] = tested on: Trichophyton ferrugineum; experiment: Minimal inhibitory concentration (agar); format: cell-based; settings: potato agar, pH 6.4, 4 days, 27° C.
[33] = tested on: Trichophyton violaceum; experiment: Minimal inhibitory concentration (agar); format: cell-based; settings: potato agar, pH 6.4, 4 days, 27° C.
[34] = tested on: Aspergillus fumigatus; experiment: Minimal inhibitory concentration (agar dilution method); format: cell-based; settings: potato agar, pH 6.4, 27° C., 4 days
Description: as §5, §6

[35] = tested on: Microsporum gypseum; experiment: as above; format: cell-based; settings: potato agar, pH 6.4, 27° C., 4 days
Description: as §5, §6

## CC1OC(CC(N)=O)CC2=C1C(=O)c1c(O)cccc1C2=O (centres unmarked) [Nanaomycin C, nanaomycin C]
[1]
  MIC: 6.3 µg/mL (≈ 20.9 µM)
[2]
  MIC: 6.3 µg/mL (≈ 20.9 µM)
[3]
  MIC: > 100 µg/mL
[4]
  MIC: > 100 µg/mL
[5]
  MIC: 25 µg/mL (≈ 83 µM)
[6]
  MIC: > 100 µg/mL
[7]
  MIC: 3.1 µg/mL (≈ 10.3 µM)
[8]
  MIC: 100 µg/mL (≈ 332 µM)
[9]
  MIC: > 100 µg/mL
[10]
  MIC: > 100 µg/mL
[11]; Candida albicans, 96 h, pH 6.4, potato agar, read-out: MIC
  MIC: > 100 µg/mL
[12]; Saccharomyces, 96 h, read-out: MIC
  MIC: > 100 µg/mL
[13]; Trichophyton interdigitale, 96 h, read-out: MIC
  MIC: 100 µg/mL (≈ 332 µM)
[14]
  MIC: 3.1 µg/mL (≈ 10.3 µM)
[15]
  MIC: 12.5 µg/mL (≈ 41.5 µM)
[16]
  MIC: 6.3 µg/mL (≈ 20.9 µM)
[17]
  MIC: 12.5 µg/mL (≈ 41.5 µM)
[18]
  MIC: 50 µg/mL (≈ 166 µM)
[19]
  MIC: 6.3 µg/mL (≈ 20.9 µM)
[20]
  MIC: 50 µg/mL (≈ 166 µM)
[21]; Aspergillus niger, 96 h, read-out: MIC
  MIC: > 100 µg/mL
[22]
  MIC: 100 µg/mL (≈ 332 µM)
[23]
  activity against Gram-positive bacteria: as strong activity against Gram-positive bacteria as nanaomycin A
[24]
  activity against mycoplasma(s): a weaker activity against fungi and mycoplasmas than nanaomycin A
[25]
  activity against fungi: a weaker activity against fungi and mycoplasmas than nanaomycin A
[26]
  antimicrobial activity: inhibits mainly Gram-positive bacteria and mycoplasmas
[27]
  therapeutic effect on Trichophyton infectious diseases: poor therapeutic effect
[28]; methanol, ethanol, ethylacetate, chloroform, acetone
  Solubility in methanol, ethanol, ethylacetate, chloroform and acetone: Soluble
[28]; n-hexane, petroleum ether
  Solubility in n-hexane and petroleum ether: Insoluble
[28]; water
  Solubility in water: Insoluble

## ethylkalafunginate [reference compound]
[11]; potato agar
  MIC: > 100 µg/mL
[29]
  MIC: > 100 µg/mL
[30]
  MIC: > 100 µg/mL
[12]
  MIC: > 100 µg/mL
[31]
  MIC: > 100 µg/mL
[32]
  MIC: > 100 µg/mL
[13]
  MIC: > 100 µg/mL
[33]
  MIC: > 100 µg/mL
[21]
  MIC: > 100 µg/mL
[34]
  Minimal Inhibitory Con.: > 100 µg/mL
[35]
  Minimal Inhibitory Con.: > 100 µg/mL
